Data reported in ChEMBL document CHEMBL1201862, “PubChem BioAssay data set” (2004).
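Step 1: Grow cells in 96-well plates. Step 2: Expose to compound for 48 hours at 5 concentrations. Step 3: Interpolate endpoints linearly; if unreached, use highest concentration. At the GI50, growth is halved.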 Calls of active or inactive are those of the source. No stated cut-off is given here; in the data, active = GI50 up to about 1.1 µM and inactive = higher.

How the values were obtained:
Assay in all cases: DTP human tumour cell line panel, 48 h
MOLT-4 = test system: MOLT-4
HT-29 = test system: HT-29
HOP-92 = test system: HOP-92
NCI/ADR-RES = test system: NCI/ADR-RES
PC-3 = test system: PC-3
NCI-H23 = test system: NCI-H23
M14 = test system: M14
HOP-62 = test system: HOP-62
HCT-15 = test system: HCT-15
Malme-3M = test system: Malme-3M
SF-539 = test system: SF-539
UACC-257 = test system: UACC-257
IGROV-1 = test system: IGROV-1
SN12C = test system: SN12C
SK-MEL-2 = test system: SK-MEL-2
UACC-62 = test system: UACC-62
HCC 2998 = test system: HCC 2998
CCRF-CEM = test system: CCRF-CEM
HL-60 = test system: HL-60
EKVX = test system: EKVX
ACHN = test system: ACHN
CAKI-1 = test system: CAKI-1
UO-31 = test system: UO-31
LOX IMVI = test system: LOX IMVI
RPMI-8226 = test system: RPMI-8226
MDA-MB-231 = test system: MDA-MB-231
BT-549 = test system: BT-549
U-251 = test system: U-251
OVCAR-8 = test system: OVCAR-8
A498 = test system: A498
DU-145 = test system: DU-145
A549 = test system: A549
SF-268 = test system: SF-268
SNB-75 = test system: SNB-75
SNB-19 = test system: SNB-19
OVCAR-5 = test system: OVCAR-5
786-0 = test system: 786-0
KM12 = test system: KM12
T47D = test system: T47D
K562 = test system: K562
OVCAR-3 = test system: OVCAR-3
TK-10 = test system: TK-10
MDA-MB-435 = test system: MDA-MB-435
SK-MEL-5 = test system: SK-MEL-5
NCI-H226 = test system: NCI-H226
Hs-578T = test system: Hs-578T
NCI-H460 = test system: NCI-H460
MDA-N = test system: MDA-N
SR = test system: SR
OVCAR-4 = test system: OVCAR-4
NCI-H522 = test system: NCI-H522
HCT-116 = test system: HCT-116
RXF 393 = test system: RXF 393
SK-MEL-28 = test system: SK-MEL-28
COLO 205 = test system: COLO 205
SW-620 = test system: SW-620
SK-OV-3 = test system: SK-OV-3
SF-295 = test system: SF-295

O=c1oc2ccc3ccccc3c2cc1-c1nc2ccc([N+](=O)[O-])cc2o1
GI50 (MOLT-4): > 67.6 µM (inactive) | GI50 (HT-29): > 42.7 µM (inactive) | GI50 (HOP-92): 33.6 µM (inactive) | GI50 (NCI/ADR-RES): > 80.5 µM (inactive) | GI50 (PC-3): > 100 µM (inactive) | GI50 (NCI-H23): 41.2 µM (inactive) | GI50 (M14): 25.5 µM (inactive) | GI50 (HOP-62): 10.6 µM (inactive) | GI50 (HCT-15): 69 µM | GI50 (Malme-3M): 59.4 µM (inactive) | GI50 (SF-539): 10.4 µM (inactive) | GI50 (UACC-257): > 100 µM (inactive) | GI50 (IGROV-1): 28.4 µM (inactive) | GI50 (SN12C): 97.5 µM (inactive) | GI50 (SK-MEL-2): > 64.9 µM (inactive) | GI50 (UACC-62): 59 µM (inactive) | GI50 (HCC 2998): > 100 µM (inactive) | GI50 (CCRF-CEM): 75.2 µM (inactive) | GI50 (HL-60): 34.7 µM (inactive) | GI50 (EKVX): 31.3 µM (inactive) | GI50 (ACHN): 8.57 µM (inactive) | GI50 (CAKI-1): > 44.7 µM (inactive) | GI50 (UO-31): > 49.2 µM (inactive) | GI50 (LOX IMVI): 22.9 µM (inactive) | GI50 (RPMI-8226): > 51.1 µM (inactive) | GI50 (MDA-MB-231): 43.6 µM (inactive) | GI50 (BT-549): > 44.5 µM (inactive) | GI50 (U-251): 28.7 µM (inactive) | GI50 (OVCAR-8): > 100 µM (inactive) | GI50 (A498): 38.5 µM (inactive) | GI50 (DU-145): > 58.6 µM (inactive) | GI50 (A549): 14.7 µM (inactive) | GI50 (SF-268): 20.5 µM (inactive) | GI50 (SNB-75): 14.8 µM (inactive) | GI50 (SNB-19): 13.8 µM (inactive) | GI50 (OVCAR-5): > 100 µM (inactive) | GI50 (786-0): 12.4 µM (inactive) | GI50 (KM12): > 59.2 µM (inactive) | GI50 (T47D): 66.8 µM (inactive) | GI50 (K562): > 62.1 µM (inactive) | GI50 (OVCAR-3): > 100 µM (inactive) | GI50 (TK-10): 28.3 µM (inactive) | GI50 (MDA-MB-435): > 58.3 µM (inactive) | GI50 (SK-MEL-5): 10.3 µM (inactive) | GI50 (NCI-H226): > 51.2 µM (inactive) | GI50 (Hs-578T): 56.6 µM (inactive) | GI50 (NCI-H460): 36.1 µM (inactive) | GI50 (MDA-N): > 100 µM (inactive) | GI50 (SR): > 71.4 µM (inactive) | GI50 (OVCAR-4): 22.5 µM (inactive) | GI50 (NCI-H522): 18.9 µM (inactive) | GI50 (HCT-116): 48.6 µM (inactive) | GI50 (RXF 393): 4.72 µM (inactive) | GI50 (SK-MEL-28): > 100 µM (inactive) | GI50 (COLO 205): > 100 µM (inactive) | GI50 (SW-620): > 100 µM (inactive) | GI50 (SK-OV-3): > 30.4 µM (inactive) | GI50 (SF-295): 13.5 µM (inactive)

CC1=NNC(=O)C1C(CC(=O)c1c[nH]c2ccccc12)C(=O)O (stereo not drawn)
GI50 (MOLT-4): 49 µM (inactive) | GI50 (HT-29): > 100 µM (inactive) | GI50 (HOP-92): > 100 µM (inactive) | GI50 (NCI/ADR-RES): > 100 µM (inactive) | GI50 (PC-3): > 100 µM (inactive) | GI50 (NCI-H23): > 100 µM (inactive) | GI50 (M14): > 100 µM (inactive) | GI50 (HOP-62): > 100 µM (inactive) | GI50 (HCT-15): 92.9 µM | GI50 (Malme-3M): > 100 µM (inactive) | GI50 (SF-539): > 100 µM (inactive) | GI50 (UACC-257): > 100 µM (inactive) | GI50 (IGROV-1): 15 µM (inactive) | GI50 (SN12C): > 100 µM (inactive) | GI50 (SK-MEL-2): > 100 µM (inactive) | GI50 (UACC-62): > 100 µM (inactive) | GI50 (CCRF-CEM): 28.6 µM (inactive) | GI50 (HL-60): 74.5 µM (inactive) | GI50 (EKVX): > 100 µM (inactive) | GI50 (ACHN): > 100 µM (inactive) | GI50 (CAKI-1): > 100 µM (inactive) | GI50 (UO-31): 64.3 µM (inactive) | GI50 (LOX IMVI): 97.3 µM (inactive) | GI50 (RPMI-8226): 35.1 µM (inactive) | GI50 (MDA-MB-231): > 100 µM (inactive) | GI50 (BT-549): > 100 µM (inactive) | GI50 (U-251): > 100 µM (inactive) | GI50 (OVCAR-8): > 100 µM (inactive) | GI50 (A498): > 100 µM (inactive) | GI50 (DU-145): > 100 µM (inactive) | GI50 (A549): > 100 µM (inactive) | GI50 (SF-268): > 100 µM (inactive) | GI50 (SNB-75): > 100 µM (inactive) | GI50 (SNB-19): > 100 µM (inactive) | GI50 (OVCAR-5): > 100 µM (inactive) | GI50 (786-0): > 100 µM (inactive) | GI50 (KM12): 30.1 µM (inactive) | GI50 (T47D): 76 µM (inactive) | GI50 (K562): 36.1 µM (inactive) | GI50 (OVCAR-3): > 100 µM (inactive) | GI50 (TK-10): > 100 µM (inactive) | GI50 (MDA-MB-435): 68.5 µM (inactive) | GI50 (SK-MEL-5): > 100 µM (inactive) | GI50 (NCI-H226): > 100 µM (inactive) | GI50 (Hs-578T): > 100 µM (inactive) | GI50 (NCI-H460): > 100 µM (inactive) | GI50 (MDA-N): > 100 µM (inactive) | GI50 (NCI-H522): 72.1 µM (inactive) | GI50 (HCT-116): > 100 µM (inactive) | GI50 (RXF 393): > 100 µM (inactive) | GI50 (SK-MEL-28): > 100 µM (inactive) | GI50 (COLO 205): 64.7 µM (inactive) | GI50 (SW-620): > 100 µM (inactive) | GI50 (SK-OV-3): > 100 µM (inactive) | GI50 (SF-295): > 100 µM (inactive)
